Data from ChEMBL document CHEMBL5370655.

What was measured:
[1] = molecular target: T1, Epidermal growth factor receptor (Homo sapiens, UniProt P00533, C797S/L858R/T790M)
[2] = molecular target: T1, Epidermal growth factor receptor; remark: listed apart in the source
[3] = molecular target: Epidermal growth factor receptor (Homo sapiens, UniProt P00533)
Description: Inhibition of wild-type EGFR (unknown origin) using polyE4Y1 as substrate incubated for 5 mins with compound followed by substrate addition measured after 60 mins in presence of ATP by ADP-Glo reagent based assay

[4] = molecular target: Epidermal growth factor receptor (Homo sapiens, UniProt P00533, L858R/T790M); assay: Inhibition of EGFR L858R/T790M double mutant (unknown origin) using polyE4Y1 as substrate incubated for 5 mins with compound followed by substrate addition measured after 60 mins in presence of ATP by ADP-Glo reagent based assay
A-431 = assay: Antiproliferative activity against human A-431 cells assessed as inhibition of cell growth measured after 72 hrs by CCK8 assay; assay type: functional, cell-based; conditions: A-431, 72 h
PC-9 [5] = assay: Antiproliferative activity against human PC-9 cells assessed as inhibition of cell growth measured after 72 hrs by CCK8 assay; assay type: functional, cell-based; conditions: PC-9, 72 h
NCI-H1975 = assay: Antiproliferative activity against human NCI-H1975 cells assessed as inhibition of cell growth measured after 72 hrs by CCK8 assay; assay type: functional, cell-based; conditions: NCI-H1975, 72 h
[6] = molecular target: Epidermal growth factor receptor (Homo sapiens, UniProt P00533, L858R)
PC-9 [7] = assay type: functional, cell-based; conditions: Homo sapiens, PC-9, 72 h
[8] = molecular target: Epidermal growth factor receptor (Homo sapiens, UniProt P00533, C797S/EX19DEL/T790M)
[9] = Induction of cell cycle arrest in human H1975-TM cells assessed as accumulation at S phase at 500 nM measured after 24 hrs by RNase A/propidium iodide staining based flow cytometric analysis (reference value: 18.1 %); assay type: functional
[10] = Induction of cell cycle arrest in human H1975-TM cells assessed as accumulation at G0/G1 phase at 500 nM measured after 24 hrs by RNase A/propidium iodide staining based flow cytometric analysis (reference value: 64.3 %); assay type: functional
[11] = Induction of cell cycle arrest in human H1975-TM cells assessed as accumulation at G2/M phase at 500 nM measured after 24 hrs by RNase A/propidium iodide staining based flow cytometric analysis (reference value: 17.6 %); assay type: functional
[12] = Antitumor activity against human H1975-TM cells xenografted in BALB/c mouse assessed as tumor growth inhibition at 25 mg/kg, po measured after 25 days; assay type: functional; conditions: time 25 day
[13] = Induction of apoptosis in human H1975-TM cells assessed as apoptotic cells at 500 nM measured after 24 by Annexin V-FITC and propidium iodide staining based flow cytometric analysis (reference value: 7.08 %); assay type: functional; conditions: time 24 hrs

Sequence of Epidermal growth factor receptor (Homo sapiens, UniProt P00533, L858R/T790M) (P00533 25-1210 T790M/L858R limits assumed): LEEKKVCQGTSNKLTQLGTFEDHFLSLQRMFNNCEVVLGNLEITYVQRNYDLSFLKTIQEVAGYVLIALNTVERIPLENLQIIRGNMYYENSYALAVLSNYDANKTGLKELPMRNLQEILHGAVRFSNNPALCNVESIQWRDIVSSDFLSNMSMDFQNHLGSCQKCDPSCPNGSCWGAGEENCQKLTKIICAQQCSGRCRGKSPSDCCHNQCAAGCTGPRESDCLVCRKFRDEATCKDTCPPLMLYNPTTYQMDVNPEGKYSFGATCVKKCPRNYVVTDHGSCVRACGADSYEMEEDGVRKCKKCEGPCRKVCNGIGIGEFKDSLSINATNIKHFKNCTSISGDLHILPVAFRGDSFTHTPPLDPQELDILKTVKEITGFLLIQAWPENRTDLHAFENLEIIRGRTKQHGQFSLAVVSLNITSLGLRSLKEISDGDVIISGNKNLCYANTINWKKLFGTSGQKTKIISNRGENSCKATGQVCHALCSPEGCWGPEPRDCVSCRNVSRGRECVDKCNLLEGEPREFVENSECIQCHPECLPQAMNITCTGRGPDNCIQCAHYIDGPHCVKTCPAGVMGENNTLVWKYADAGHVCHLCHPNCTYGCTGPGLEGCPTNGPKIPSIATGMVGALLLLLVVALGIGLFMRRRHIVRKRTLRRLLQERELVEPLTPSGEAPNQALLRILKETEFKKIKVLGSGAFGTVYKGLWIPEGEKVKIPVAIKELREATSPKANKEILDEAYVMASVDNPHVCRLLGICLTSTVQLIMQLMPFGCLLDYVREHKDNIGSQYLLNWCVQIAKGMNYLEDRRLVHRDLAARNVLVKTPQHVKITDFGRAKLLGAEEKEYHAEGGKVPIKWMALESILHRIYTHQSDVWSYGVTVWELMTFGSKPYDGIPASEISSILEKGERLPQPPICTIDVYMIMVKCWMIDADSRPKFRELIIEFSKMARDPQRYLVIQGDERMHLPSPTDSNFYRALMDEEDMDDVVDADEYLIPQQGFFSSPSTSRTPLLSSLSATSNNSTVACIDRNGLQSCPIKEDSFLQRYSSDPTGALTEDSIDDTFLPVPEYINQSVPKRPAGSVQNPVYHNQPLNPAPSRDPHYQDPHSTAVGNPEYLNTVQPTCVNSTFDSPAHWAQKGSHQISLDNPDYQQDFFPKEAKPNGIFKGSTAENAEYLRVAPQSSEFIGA
Sequence of Epidermal growth factor receptor (Homo sapiens, UniProt P00533, C797S/EX19DEL/T790M) (P00533 whole entry, looked up, stated change not applied): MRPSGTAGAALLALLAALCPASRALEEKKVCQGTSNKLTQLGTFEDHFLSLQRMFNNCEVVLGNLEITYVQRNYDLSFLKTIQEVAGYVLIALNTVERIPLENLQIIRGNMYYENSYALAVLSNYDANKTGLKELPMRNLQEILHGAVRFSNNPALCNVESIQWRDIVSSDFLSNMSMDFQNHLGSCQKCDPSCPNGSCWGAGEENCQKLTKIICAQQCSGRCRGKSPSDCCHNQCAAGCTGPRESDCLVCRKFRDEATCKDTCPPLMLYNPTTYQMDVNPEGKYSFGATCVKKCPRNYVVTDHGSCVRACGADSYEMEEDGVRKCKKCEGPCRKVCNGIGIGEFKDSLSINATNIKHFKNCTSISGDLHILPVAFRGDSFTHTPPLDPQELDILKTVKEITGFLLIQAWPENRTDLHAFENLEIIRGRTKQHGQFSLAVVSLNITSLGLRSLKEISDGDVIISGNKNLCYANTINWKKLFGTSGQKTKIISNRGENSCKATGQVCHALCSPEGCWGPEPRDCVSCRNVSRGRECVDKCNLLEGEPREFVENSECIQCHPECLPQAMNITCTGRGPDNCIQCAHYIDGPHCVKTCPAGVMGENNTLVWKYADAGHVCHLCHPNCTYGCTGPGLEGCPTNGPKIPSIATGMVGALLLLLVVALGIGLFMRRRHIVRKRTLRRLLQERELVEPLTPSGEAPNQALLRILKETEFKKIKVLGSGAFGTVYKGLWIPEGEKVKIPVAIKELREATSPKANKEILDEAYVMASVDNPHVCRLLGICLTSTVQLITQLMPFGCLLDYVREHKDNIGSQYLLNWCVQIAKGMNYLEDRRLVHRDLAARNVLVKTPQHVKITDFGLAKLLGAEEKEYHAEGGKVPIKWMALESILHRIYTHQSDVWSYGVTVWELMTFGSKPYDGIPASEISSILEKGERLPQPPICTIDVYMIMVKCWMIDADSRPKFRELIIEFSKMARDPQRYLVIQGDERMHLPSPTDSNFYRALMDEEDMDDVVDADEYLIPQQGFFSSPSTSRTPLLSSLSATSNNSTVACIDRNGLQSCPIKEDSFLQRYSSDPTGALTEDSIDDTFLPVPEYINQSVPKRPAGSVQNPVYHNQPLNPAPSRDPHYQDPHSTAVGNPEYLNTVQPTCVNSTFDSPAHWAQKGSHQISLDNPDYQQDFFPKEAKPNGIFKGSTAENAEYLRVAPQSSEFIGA
Sequence of Epidermal growth factor receptor (Homo sapiens, UniProt P00533) (P00533 whole entry): as the sequence (P00533 whole entry, looked up, stated change not applied) above
T1 sequence (P00533 25-1210 T790M/C797S/L858R limits assumed): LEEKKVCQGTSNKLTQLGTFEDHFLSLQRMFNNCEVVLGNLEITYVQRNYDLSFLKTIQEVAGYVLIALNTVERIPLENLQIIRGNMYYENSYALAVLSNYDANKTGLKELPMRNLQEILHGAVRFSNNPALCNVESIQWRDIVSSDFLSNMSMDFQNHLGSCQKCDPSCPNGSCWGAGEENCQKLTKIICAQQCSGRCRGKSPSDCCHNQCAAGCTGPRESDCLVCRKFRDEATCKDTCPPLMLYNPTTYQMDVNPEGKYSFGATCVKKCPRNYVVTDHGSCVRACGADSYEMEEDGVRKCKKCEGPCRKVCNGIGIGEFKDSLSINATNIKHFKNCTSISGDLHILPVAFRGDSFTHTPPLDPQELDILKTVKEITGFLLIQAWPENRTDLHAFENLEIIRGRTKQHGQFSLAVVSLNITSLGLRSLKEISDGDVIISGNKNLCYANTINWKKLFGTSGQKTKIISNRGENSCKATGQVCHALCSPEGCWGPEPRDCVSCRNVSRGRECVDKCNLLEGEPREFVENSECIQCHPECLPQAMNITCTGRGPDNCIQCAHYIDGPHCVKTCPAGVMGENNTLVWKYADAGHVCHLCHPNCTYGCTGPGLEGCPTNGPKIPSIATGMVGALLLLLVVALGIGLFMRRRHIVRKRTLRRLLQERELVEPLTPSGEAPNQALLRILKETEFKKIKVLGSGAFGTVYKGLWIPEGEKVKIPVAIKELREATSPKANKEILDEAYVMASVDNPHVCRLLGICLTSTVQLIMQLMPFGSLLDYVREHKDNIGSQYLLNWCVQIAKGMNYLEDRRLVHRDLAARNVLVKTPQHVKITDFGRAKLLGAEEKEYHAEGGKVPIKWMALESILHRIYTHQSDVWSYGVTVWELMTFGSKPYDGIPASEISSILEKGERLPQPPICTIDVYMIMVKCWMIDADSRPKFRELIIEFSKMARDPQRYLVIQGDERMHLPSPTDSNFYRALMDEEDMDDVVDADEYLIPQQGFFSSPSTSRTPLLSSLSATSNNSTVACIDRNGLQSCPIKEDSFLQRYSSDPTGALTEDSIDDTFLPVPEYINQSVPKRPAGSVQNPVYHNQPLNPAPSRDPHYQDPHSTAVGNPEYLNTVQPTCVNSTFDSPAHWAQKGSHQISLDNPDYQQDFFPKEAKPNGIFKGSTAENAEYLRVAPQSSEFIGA

| Compound | IC50 [1] | other results |
| --- | --- | --- |
| CN(C)CCn1ccc2cc(Nc3nccc(-c4sc(NS(C)(=O)=O)nc4-c4ccc(F)cc4)n3)ccc21 | 2.5 nM |  |
| COc1cc(N2CCN(C)CC2)ccc1Nc1nccc(-n2ccnc2-c2ccc(F)cc2)n1 | 127 nM |  |
| CCS(=O)(=O)Nc1nc(-c2ccc(F)cc2)c(-c2ccnc(Nc3ccc4c(ccn4CCN4CCOCC4)c3)n2)s1 | 6.3 nM |  |
| CCS(=O)(=O)N1CCC(c2nc(-c3ccc(F)cc3)c(-c3ccnc(Nc4ccc5c(ccn5CCN5CCOCC5)c4)n3)s2)CC1 | 71 nM |  |
| CCN(CC)CCn1ccc2cc(Nc3nccc(-c4sc(C5CCN(S(=O)(=O)CC)CC5)nc4-c4ccc(F)cc4)n3)ccc21 | 34 nM |  |
| CCS(=O)(=O)Nc1nc(-c2ccc(F)cc2)c(-c2ccnc(Nc3ccc(N4CCN(C)CC4)c(C)c3)n2)s1 | 3.6 nM |  |
| CCS(=O)(=O)N1CCC(c2nc(-c3ccc(F)cc3)c(-c3ccnc(Nc4ccc(N5CCOCC5)cc4OC)n3)s2)CC1 | 71 nM |  |
| COc1cc(N2CCC(N3CCN(C)CC3)CC2)c(C)cc1Nc1nccc(-n2ccnc2-c2ccc(F)cc2)n1 | 28 nM |  |
| CCS(=O)(=O)Nc1nc(-c2ccc(F)cc2)c(-c2ccnc(Nc3ccc4c(ccn4CCN(C)C)c3)n2)s1 | 0.9 nM |  |
| COc1ccc(-c2nccn2-c2ccnc(Nc3ccc4c(ccn4CCN(C)C)c3)n2)cc1 | 289 nM |  |
| CCS(=O)(=O)Nc1nc(-c2ccc(F)cc2)c(-c2ccnc(Nc3ccc(N4CCN(C)CC4)cc3)n2)s1 | 1.8 nM |  |
| CCS(=O)(=O)Nc1nc(-c2ccc(F)cc2)c(-c2ccnc(Nc3ccc(N4CCOCC4)cc3)n2)s1 | 37 nM |  |
| CCS(=O)(=O)N1CCC(c2nc(-c3ccc(F)cc3)c(-c3ccnc(Nc4ccc(N5CCN(C)CC5)cc4)n3)s2)CC1 | 18 nM | IC50 [2]: 166 nM; IC50 [3]: 52 nM; IC50 [4]: 8 nM; IC50 (A-431): 1200 nM; IC50 (PC-9 [5]): 6 nM; IC50 (NCI-H1975): 190 nM; IC50 [6]: 2.4 nM; IC50 (PC-9 [7]): 80 nM; IC50 [8]: 30 nM |
| CCS(=O)(=O)Nc1nc(-c2ccc(F)cc2)c(-c2ccnc(Nc3ccc(N4CCOCC4)c(F)c3)n2)s1 | 4.1 nM |  |
| C=CC(=O)Nc1cc(Nc2nccc(-c3cn(C)c4ccccc34)n2)c(OC)cc1N(C)CCN(C)C [OSIMERTINIB] |  | IC50 (A-431): […]; IC50 (PC-9 [5]): 5 nM; IC50 (NCI-H1975): […]; IC50 (PC-9 [7]): 2200 nM |
| CN1CCN(c2ccc(Nc3nccc(-n4ccnc4-c4ccc(F)cc4)n3)cc2)CC1 | 63 nM |  |
| CCS(=O)(=O)N1CCC(c2nc(-c3ccc(F)cc3)c(-c3ccnc(Nc4ccc(N5CCN(C)CC5)c(C)c4)n3)s2)CC1 | 36 nM | IC50 [2]: 289 nM; IC50 [3]: 67 nM; IC50 [4]: 17 nM; IC50 (A-431): 610 nM; IC50 (PC-9 [5]): 35 nM; IC50 (NCI-H1975): 100 nM; IC50 [6]: 5.8 nM; IC50 (PC-9 [7]): 40 nM; IC50 [8]: 70 nM |
| CCS(=O)(=O)N1CCC(c2nc(-c3ccc(F)cc3)c(-c3ccnc(Nc4ccc(N5CCN(C)CC5)cc4OC)n3)s2)CC1 | 71 nM |  |
| CN(C)CCn1ccc2cc(Nc3nccc(-c4sc(N5CCOCC5)nc4-c4ccc(F)cc4)n3)ccc21 | 26 nM |  |
| CCS(=O)(=O)Nc1nc(-c2ccc(F)cc2)c(-c2ccnc(Nc3ccc(N4CCN(C(C)C)CC4)cc3)n2)s1 | 3.7 nM |  |
| CN(C)CCn1ccc2cc(Nc3nccc(-c4sc(NS(=O)(=O)C5CCCCC5)nc4-c4ccc(F)cc4)n3)ccc21 | 20 nM |  |
| CN(C)CCn1ccc2cc(Nc3nccc(-n4ccnc4-c4cccc(F)c4)n3)ccc21 | 90 nM |  |

| Compound | IC50 [1] | other results |
| --- | --- | --- |
| COc1cc(N2CCC(N3CCN(C)CC3)CC2)ccc1Nc1ncc(Cl)c(Nc2ccccc2P(C)(C)=O)n1 [BRIGATINIB] |  | Activity [9]: 10.5%; IC50 (A-431): 510 nM; IC50 (PC-9 [5]): 87 nM; IC50 (NCI-H1975): 320 nM; Activity [10]: 78.4%; IC50 (PC-9 [7]): 390 nM; Activity [11]: 11.1%; TGI [12]: 59.8%; Activity [13]: 11.58% |
| CC(C)c1nc(-c2ccc(F)cc2)c(-c2ccnc(Nc3ccc4c(ccn4CCN(C)C)c3)n2)s1 | 20 nM |  |
| CCS(=O)(=O)N1CCC(c2nc(-c3ccc(F)cc3)c(-c3ccnc(Nc4ccc(N5CCN(C(C)C)CC5)cc4)n3)s2)CC1 | 49 nM |  |
| CCS(=O)(=O)Nc1nc(-c2ccc(F)cc2)c(-c2ccnc(Nc3ccc(C4CCN(C)CC4)cc3)n2)s1 | 2.1 nM |  |
| CCCCS(=O)(=O)Nc1nc(-c2ccc(F)cc2)c(-c2ccnc(Nc3ccc4c(ccn4CCN(C)C)c3)n2)s1 | 4.3 nM |  |
| CN(C)CCn1ccc2cc(Nc3nccc(-n4ccnc4-c4ccc(F)cc4)n3)ccc21 | 17 nM |  |
| CC(C)S(=O)(=O)Nc1nc(-c2ccc(F)cc2)c(-c2ccnc(Nc3ccc4c(ccn4CCN(C)C)c3)n2)s1 | 3.4 nM |  |
| CN(C)CCn1ccc2cc(Nc3nccc(-n4ccnc4-c4ccc(C(F)(F)F)cc4)n3)ccc21 | > 1000 nM |  |
| CN(C)CCn1ccc2cc(Nc3nccc(-n4ccc(-c5ccc(F)cc5)n4)n3)ccc21 | 409 nM |  |
| CN(C)CCn1ccc2cc(Nc3nccc(-c4sc(N)nc4-c4ccc(F)cc4)n3)ccc21 | 2.1 nM |  |
| CCN1CCN(c2ccc(Nc3nccc(-c4sc(C5CCN(S(=O)(=O)CC)CC5)nc4-c4ccc(F)cc4)n3)cc2)CC1 | 26 nM |  |
| CCS(=O)(=O)Nc1nc(-c2ccc(F)cc2)c(-c2ccnc(Nc3ccc(N4CCN(C)CC4)cc3OC)n2)s1 | 2.5 nM |  |
| Cc1nc(-c2ccc(F)cc2)c(-c2ccnc(Nc3ccc4c(ccn4CCN(C)C)c3)n2)s1 | 11 nM |  |
| CNc1nc(-c2ccc(F)cc2)c(-c2ccnc(Nc3ccc4c(ccn4CCN(C)C)c3)n2)s1 | 19 nM |  |
| CCS(=O)(=O)N1CCC(c2nc(-c3ccc(F)cc3)c(-c3ccnc(Nc4ccc(N5CCOCC5)cc4)n3)s2)CC1 | 58 nM |  |
| CC(=O)Nc1nc(-c2ccc(F)cc2)c(-c2ccnc(Nc3ccc4c(ccn4CCN(C)C)c3)n2)s1 | 3.2 nM | IC50 [2]: 159 nM; IC50 [3]: 66 nM; IC50 [4]: 4.9 nM; IC50 (A-431): 450 nM; IC50 (PC-9 [5]): 20 nM; IC50 (NCI-H1975): 340 nM; IC50 [6]: 2.1 nM; IC50 (PC-9 [7]): 8 nM; IC50 [8]: 14 nM |
| CN(C)CCn1ccc2cc(Nc3nccc(-n4ccnc4-c4ccc(Cl)cc4)n3)ccc21 | 86 nM |  |
| CN(C)CCn1ccc2cc(Nc3nccc(-c4sc(NS(=O)(=O)c5ccc(F)cc5)nc4-c4ccc(F)cc4)n3)ccc21 | 15 nM |  |
| CCS(=O)(=O)N1CCC(c2nc(-c3ccc(F)cc3)c(-c3ccnc(Nc4ccc(N5CCOCC5)c(F)c4)n3)s2)CC1 | 77 nM |  |
| CCS(=O)(=O)Nc1nc(-c2ccc(F)cc2)c(-c2ccnc(Nc3cc(-c4cnn(C)c4)c(N4CCOCC4)cc3OC)n2)s1 | 70.1 nM |  |
| CCS(=O)(=O)N1CCC(c2nc(-c3ccc(F)cc3)c(-c3ccnc(Nc4ccc(C5CCN(C)CC5)cc4)n3)s2)CC1 | 15 nM |  |
| CCN1CCN(c2ccc(Nc3nccc(-c4sc(NS(=O)(=O)CC)nc4-c4ccc(F)cc4)n3)cc2)CC1 | 2.2 nM |  |
